Laboratory results from ChEMBL document CHEMBL1135808, “A new type of mixed anhydride and its applications to the synthesis of 7-substituted 8-chloro-5,5-dioxoimidazo[1,2-b][1,4,2]benzodithiazines with in vitro antitumor activity” (2002).

Legend:
HCT-116 = assay: Log of molar concentration leading to 50% cell death against colon cancer HCT116 cell line was reported; format: functional; details: Homo sapiens, read-out: Log LC50 (the source's name) (converted)
SF-539 [1] = assay: Log of molar concentration leading to 50% cell death against CNS cancer SF-539 cell line was reported; format: functional; details: Homo sapiens, read-out: Log LC50 (the source's name) (converted)
KM12 = assay: Log of molar concentration leading to 50% cell death against colon cancer KM12 cell line was reported; format: functional; details: Homo sapiens, read-out: Log LC50 (the source's name) (converted)
M14 [2] = assay: Log of molar concentration leading to 50% cell death against melanoma M14 cell line was reported; format: functional; details: Homo sapiens, read-out: Log LC50 (the source's name) (converted)
NCI-H46 [3] = assay: Log of molar concentration leading to 50% cell death against non-small-cell lung cancer […] cell line was reported; format: functional; details: Homo sapiens, read-out: Log LC50 (the source's name) (converted)
CAKI-1 = assay: In vitro total growth inhibition against renal cancer CAKI-1cell lines was reported.; format: functional; details: Homo sapiens, read-out: Log TGI (converted)
786-0 [4] = assay: In vitro growth inhibition against renal cancer […] cell line was reported.; format: functional; details: Homo sapiens
NCI-H23 = assay: In vitro total growth inhibition against non-small-cell lung cancer NCI-H23 cell lines was reported.; format: functional; details: Homo sapiens, read-out: Log TGI (converted)
BT-549 = assay: In vitro growth inhibition against breast cancer BT 549 cell line was reported.; format: functional; details: Homo sapiens
UACC-257 [5] = assay: In vitro total growth inhibition against melanoma UACC-257 cell lines was reported.; format: functional; details: Homo sapiens, read-out: Log TGI (converted)
SK-MEL-5 = assay: Log of molar concentration leading to 50% cell death against melanoma SK-MEL-5 cell line was reported; format: functional; details: Homo sapiens, read-out: Log LC50 (the source's name) (converted)
OVCAR-3 [6] = assay: Log of molar concentration leading to 50% cell death against ovarian cancer OVCAR-3 cell line was reported; format: functional; details: Homo sapiens, read-out: Log LC50 (the source's name) (converted)
HCC 2998 [7] = assay: In vitro total growth inhibition against colon cancer HCC2998 cell lines was reported.; format: functional; details: Homo sapiens, read-out: Log TGI (converted)
U-251 [8] = assay: Log of molar concentration leading to 50% cell death against CNS cancer U251 cell line was reported; format: functional; details: Homo sapiens, read-out: Log LC50 (the source's name) (converted)
NCI/ADR-RES = assay: In vitro growth inhibition against breast cancer NCI/ADR-RES cell line was reported.; format: functional; details: Homo sapiens
786-0 [9] = assay: In vitro total growth inhibition against renal cancer […] cell lines was reported.; format: functional; details: Homo sapiens, read-out: Log TGI (converted)
OVCAR-8 = assay: In vitro total growth inhibition against ovarian cancer OVCAR-8 cell lines was reported.; format: functional; details: Homo sapiens, read-out: Log TGI (converted)
MDA-N = assay: In vitro growth inhibition against breast cancer MDA-N cell line was reported.; format: functional; details: Homo sapiens
MOLT-4 = assay: In vitro growth inhibition against leukemia MOLT-4 cell line was reported.; format: functional; details: Homo sapiens
HCC 2998 [10] = assay: In vitro growth inhibition against colon cancer HCC2998 cell line was reported.; format: functional; details: Homo sapiens
HL-60 = assay: In vitro growth inhibition against leukemia HL-60(TB) cell line was reported.; format: functional; details: Homo sapiens
U-251 [11] = assay: In vitro growth inhibition against CNS cancer U251 cell line was reported.; format: functional; details: Homo sapiens
NCI-H322M = assay: In vitro total growth inhibition against non-small-cell lung cancer NCI-H322M cell lines was reported.; format: functional; details: Homo sapiens, read-out: Log TGI (converted)
PC-3 = assay: In vitro total growth inhibition against prostate cancer PC-3 cell lines was reported.; format: functional; details: Homo sapiens, read-out: Log TGI (converted)
RPMI-8226 [12] = assay: In vitro total growth inhibition against leukemia […] cell lines was reported.; format: functional; details: Homo sapiens, read-out: Log TGI (converted)
MCF7 [13] = assay: In vitro total growth inhibition against breast cancer MCF 7 cell lines was reported.; format: functional; details: Homo sapiens, read-out: Log TGI (converted)
MDA-MB-231 = assay: In vitro growth inhibition against breast cancer MDA-MB-231/ATCC cell line was reported.; format: functional; details: Homo sapiens
ACHN = assay: In vitro total growth inhibition against renal cancer ACHN cell lines was reported.; format: functional; details: Homo sapiens, read-out: Log TGI (converted)
RPMI-8226 [14] = assay: Log of molar concentration leading to 50% cell death against leukemia […] cell line was reported; format: functional; details: Homo sapiens, read-out: Log LC50 (the source's name) (converted)
MCF7 [15] = assay: In vitro growth inhibition against breast cancer MCF 7 cell line was reported.; format: functional; details: Homo sapiens
HOP-92 = assay: In vitro total growth inhibition against non-small-cell lung cancer HOP-92 cell lines was reported.; details: Homo sapiens, read-out: Log TGI (converted)
TK-10 [16] = assay: In vitro total growth inhibition against renal cancer TK-10 cell lines was reported.; format: functional; details: Homo sapiens, read-out: Log TGI (converted)
RXF 393 = assay: In vitro growth inhibition against renal cancer RXF 393 cell line was reported.; format: functional; details: Homo sapiens
A549 = assay: In vitro total growth inhibition against non-small-cell lung cancer A 549/ATCC cell lines was reported.; format: functional; details: Homo sapiens, read-out: Log TGI (converted)
UACC-257 [17] = assay: Log of molar concentration leading to 50% cell death against melanoma UACC-257 cell line was reported; format: functional; details: Homo sapiens, read-out: Log LC50 (the source's name) (converted)
Homo sapiens = organism: Homo sapiens; assay: In vitro total growth inhibition against non-small-cell lung cancer EKVX cell lines was reported.; format: functional; details: read-out: Log TGI (converted)
LOX IMVI = assay: In vitro total growth inhibition against melanoma LOX IMVI cell lines was reported.; format: functional; details: Homo sapiens, read-out: Log TGI (converted)
OVCAR-4 = assay: In vitro growth inhibition against ovarian cancer OVCAR-4 cell line was reported.; format: functional; details: Homo sapiens
UO-31 = assay: In vitro growth inhibition against renal cancer UO-31 cell line was reported.; format: functional; details: Homo sapiens
SN12C = assay: In vitro growth inhibition against renal cancer SN12C cell line was reported.; format: functional; details: Homo sapiens
SK-MEL-2 [18] = assay: In vitro growth inhibition against melanoma SK-MEL-2 cell line was reported.; format: functional; details: Homo sapiens
SW-620 [19] = assay: In vitro total growth inhibition against colon cancer SW-620 cell lines was reported.; format: functional; details: Homo sapiens, read-out: Log TGI (converted)
UACC-62 = assay: In vitro growth inhibition against melanoma UACC-62 cell line was reported.; format: functional; details: Homo sapiens
TK-10 [20] = assay: In vitro growth inhibition against renal cancer TK-10 cell line was reported.; format: functional; details: Homo sapiens
OVCAR-5 [21] = assay: In vitro total growth inhibition against ovarian cancer OVCAR-5 cell lines was reported.; format: functional; details: Homo sapiens, read-out: Log TGI (converted)
M14 [22] = assay: In vitro growth inhibition against melanoma M14 cell line was reported.; format: functional; details: Homo sapiens
SF-539 [23] = assay: In vitro total growth inhibition against CNS cancer SF-539 cell lines was reported.; format: functional; details: Homo sapiens, read-out: Log TGI (converted)
NCI-H46 [24] = assay: In vitro total growth inhibition against non-small-cell lung cancer […] cell lines was reported.; format: functional; details: Homo sapiens, read-out: Log TGI (converted)
OVCAR-5 [25] = assay: In vitro growth inhibition against ovarian cancer OVCAR-5 cell line was reported.; format: functional; details: Homo sapiens
Tumor Cell line = assay: Log of molar concentration leading to 50% cell death was reported; format: functional; details: Homo sapiens, read-out: Log LC50 (the source's name) (converted)
A498 = assay: In vitro growth inhibition against renal cancer A498 cell line was reported.; format: functional; details: Homo sapiens
HT-29 = assay: In vitro total growth inhibition against colon cancer HT-29 cell lines was reported.; format: functional; details: Homo sapiens, read-out: Log TGI (converted)
T47D = assay: In vitro total growth inhibition against breast cancer […] cell lines was reported.; format: functional; details: Homo sapiens, read-out: Log TGI (converted)
HCT-15 = assay: In vitro growth inhibition against colon cancer […] cell line was reported.; format: functional; details: Homo sapiens
NCI-H522 = assay: In vitro total growth inhibition against non-small-cell lung cancer NCI-522 cell lines was reported.; format: functional; details: Homo sapiens, read-out: Log TGI (converted)
MCF7 [26] = assay: Log of molar concentration leading to 50% cell death against breast cancer MCF 7 cell line was reported; format: functional; details: Homo sapiens, read-out: Log LC50 (the source's name) (converted)
SNB-19 = assay: In vitro growth inhibition against CNS cancer SNB-19 cell line was reported.; format: functional; details: Homo sapiens
SK-MEL-2 [27] = assay: In vitro total growth inhibition against melanoma SK-MEL-2 cell lines was reported.; format: functional; details: Homo sapiens, read-out: Log TGI (converted)
OVCAR-3 [28] = assay: In vitro total growth inhibition against ovarian cancer OVCAR-3 cell lines was reported.; format: functional; details: Homo sapiens, read-out: Log TGI (converted)
SK-MEL-28 = assay: In vitro growth inhibition against melanoma SK-MEL-28 cell line was reported.; format: functional; details: Homo sapiens
SW-620 [29] = assay: In vitro growth inhibition against colon cancer SW620 cell line was reported.; format: functional; details: Homo sapiens

O=C(Nc1nccs1)c1cc2c(cc1Cl)Sc1nccn1S2(=O)=O
CC50 (HCT-116): 55 µM
CC50 (SF-539 [1]): 72.4 µM
CC50 (KM12): 57.5 µM
CC50 (M14 [2]): 67.6 µM
CC50 (NCI-H46 [3]): 55 µM
TGI (CAKI-1): 37.2 µM
GI50 (786-0 [4]): 15.8 µM
TGI (NCI-H23): 33.9 µM
GI50 (BT-549): 18.2 µM
TGI (UACC-257 [5]): 26.9 µM
CC50 (SK-MEL-5): 55 µM
CC50 (OVCAR-3 [6]): 53.7 µM
TGI (HCC 2998 [7]): 29.5 µM
CC50 (U-251 [8]): 56.2 µM
GI50 (NCI/ADR-RES): 19.1 µM
TGI (786-0 [9]): 29.5 µM
TGI (OVCAR-8): 37.2 µM
GI50 (MDA-N): 17.8 µM
GI50 (MOLT-4): 19.1 µM
GI50 (HCC 2998 [10]): 15.8 µM
GI50 (HL-60): 13.5 µM
GI50 (U-251 [11]): 17.4 µM
TGI (NCI-H322M): 33.9 µM
TGI (PC-3): 33.1 µM
TGI (RPMI-8226 [12]): 23.4 µM
TGI (MCF7 [13]): 20 µM
GI50 (MDA-MB-231): 19.5 µM
TGI (ACHN): 32.4 µM
CC50 (RPMI-8226 [14]): 57.5 µM
GI50 (MCF7 [15]): 6.76 µM
TGI (HOP-92): 39.8 µM
TGI (TK-10 [16]): 34.7 µM
GI50 (RXF 393): 19.1 µM
TGI (A549): 63.1 µM
CC50 (UACC-257 [17]): 52.5 µM
TGI (Homo sapiens): 44.7 µM
TGI (LOX IMVI): 25.7 µM
GI50 (OVCAR-4): 16.2 µM
GI50 (UO-31): 4.37 µM
GI50 (SN12C): 17 µM
GI50 (SK-MEL-2 [18]): 17.4 µM
TGI (SW-620 [19]): 41.7 µM
GI50 (UACC-62): 14.5 µM
GI50 (TK-10 [20]): 19.1 µM
TGI (OVCAR-5 [21]): 45.7 µM
GI50 (M14 [22]): 17.8 µM
TGI (SF-539 [23]): 37.2 µM
TGI (NCI-H46 [24]): 29.5 µM
GI50 (OVCAR-5 [25]): 21.9 µM
CC50 (Tumor Cell line): 97.7 µM
GI50 (A498): 19.1 µM
TGI (HT-29): 46.8 µM
TGI (T47D): 64.6 µM
GI50 (HCT-15): 12.3 µM
TGI (NCI-H522): 2820 nM
CC50 (MCF7 [26]): 44.7 µM
GI50 (SNB-19): 19.1 µM
TGI (SK-MEL-2 [27]): 33.1 µM
TGI (OVCAR-3 [28]): 28.2 µM
GI50 (SK-MEL-28): 20 µM
GI50 (SW-620 [29]): 17 µM
